Test results from the supplement of paper PMC11208160.

Test: recombinant UMI read abundance after kanamycin selection (control-corrected) (log10(CPM+1)); higher = more efficient recombination; extreme values may be limits of the assay; sequences stand for … in AGTGCAGAGAAAATCGGCCAGTTTTCTCTGCCTGCAGTCCGCATGCCGTGGGACCCCTTGGGTTCTAACCTGTTGCCTAGATTTATGCAGCGGACTGCCTTTCTCCCAAAGTGATAAACCGG…AGGTTGGTTTCACT; site = the 11-nt donor
Procedure, shortened: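 Values are reported as log10(CPM+1), obtained by converting sequencing counts to CPM, averaging replicates and scaling by control-derived factors. The counts came from recombinant UMIs amplified by PCR across the donor–target junction. These UMIs came from a pooled Escherichia coli screen of donor and donor-binding-loop pairs for the IS621 bridge recombinase, plated with IPTG (0.07 mM) plus kanamycin or left unselected, in two replicates each.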
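Also: IS621 bridge recombinase in Escherichia coli cells against a fixed T5 target plasmid.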

Row | Sequence | recombinant UMI read abundance (log10)
1 | ACACGAACATGGACCGGTTTTCCCGGTAATCCGTATTTGTC (site AAACGAACTGA) | 0
2 | AATGTAACATGGACCGGTTTTCCCGGTAATCCGTATTTGCT (site AATGTTACTAG) | 1.14
3 | AGGTTCCCATGGACCGGTTTTCCCGGTAATCCGTATTTGTG (site TGGTTCCCTCA) | 0.00656
4 | GGTCAAGCATGGACCGGTTTTCCCGGTAATCCGTATTTGGC (site GGTCAAGCTGC) | 1.47
5 | GTAGTCGCATGGACCGGTTTTCCCGGTAATCCGTATTTGCG (site GTAGTCGCTTG) | 1.95
6 | TCCACCGCATGGACCGGTTTTCCCGGTAATCCGTATTTGAG (site TCCACCGCTCT) | 0.0235
7 | GAGTTCACATGGACCGGTTTTCCCGGTAATCCGTATTTGAT (site GAGGTCACTAT) | 0
8 | TAGTCGACATGGACCGGTTTTCCCGGTAATCCGTATTTGGG (site CAGTCGACTCC) | 0.0191
9 | CCCTTCTCATGGACCGGTTTTCCCGGTAATCCGTATTTGGG (site CCCTTCTCTTC) | 0.00791
10 | TTCAGAGCATGGACCGGTTTTCCCGGTAATCCGTATTTGCC (site TTCAGAGCTGG) | 0
11 | TAACCCACATGGACCGGTTTTCCCGGTAATCCGTATTTGTG (site TAACCCACTCA) | 0.0264
12 | AGCCTTTCATGGACCGGTTTTCCCGGTAATCCGTATTTGAC (site AGCCTCTCTGT) | 0
13 | GAAGATTCATGGACCGGTTTTCCCGGTAATCCGTATTTGTT (site GAAGATTCTAG) | 0.838
14 | CCGCCCGCATGGACCGGTTTTCCCGGTAATCCGTATTTGTA (site CCGCCCGCTTA) | 1.02
15 | GCTACTGCATGGACCGGTTTTCCCGGTAATCCGTATTTGCA (site GCTACTGCTTG) | 2.78
16 | GCGGAAGCATGGACCGGTTTTCCCGGTAATCCGTATTTGGT (site GCGGAAGCTAC) | 1.72
17 | CAATGCTCATGGACCGGTTTTCCCGGTAATCCGTATTTGGA (site CAATGCTCTTT) | 2.45
18 | CGAACATCATGGACCGGTTTTCCCGGTAATCCGTATTTGCT (site CGCACATCTAG) | 0
19 | TAAGTCACATGGACCGGTTTTCCCGGTAATCCGTATTTGGG (site GAAGTCACTCC) | 0.00751
20 | CCTGGTGCATGGACCGGTTTTCCCGGTAATCCGTATTTGTA (site CCTGGTGCTTA) | 0.698
21 | AGGATGTCATGGACCGGTTTTCCCGGTAATCCGTATTTGCA (site AGGATGTCTTG) | 3.06
22 | GGGGAACCATGGACCGGTTTTCCCGGTAATCCGTATTTGCA (site GGGGGACCTTG) | 0
23 | GGATATACATGGACCGGTTTTCCCGGTAATCCGTATTTGCC (site GGATATACTGG) | 1.81
24 | ACCTAGACATGGACCGGTTTTCCCGGTAATCCGTATTTGGG (site AGCTAGACTCC) | 0.0336
25 | ACACATGCATGGACCGGTTTTCCCGGTAATCCGTATTTGAC (site ACACATCCTGT) | 1.71

Row | Sequence | recombinant UMI read abundance (log10)
26 | GATTACCCATGGACCGGTTTTCCCGGTAATCCGTATTTGAG (site GATTACCCTCT) | 0.03
27 | CCTGTGGCATGGACCGGTTTTCCCGGTAATCCGTATTTGTA (site CCTGTGGCTTA) | 0.327
28 | AGGAGGCCATGGACCGGTTTTCCCGGTAATCCGTATTTGCA (site AGGAGGCCTTG) | 0.211
29 | GACAAAGCATGGACCGGTTTTCCCGGTAATCCGTATTTGGT (site GACAAATCTAC) | 0
30 | CTGGTATCATGGACCGGTTTTCCCGGTAATCCGTATTTGAC (site CTAGTATCTGT) | 3.16
31 | TTAAGGCCATGGACCGGTTTTCCCGGTAATCCGTATTTGAC (site CTAAGGCCTGT) | 0
32 | GTTCCAACATGGACCGGTTTTCCCGGTAATCCGTATTTGTA (site GCTCCAACTTA) | 0.287
33 | ACAGTATCATGGACCGGTTTTCCCGGTAATCCGTATTTGCA (site ACAGTAACTTC) | 0.0177
34 | CTATAATCATGGACCGGTTTTCCCGGTAATCCGTATTTGCT (site CGATCATCTAG) | 0
35 | ACTCAACCATGGACCGGTTTTCCCGGTAATCCGTATTTGGT (site ACTCAACCTAC) | 0.00884
36 | AATGTGTCATGGACCGGTTTTCCCGGTAATCCGTATTTGAC (site AATGTATCTGT) | 1.2
37 | GGCGCACCATGGACCGGTTTTCCCGGTAATCCGTATTTGCA (site GGGGCACCTTG) | 0
38 | TAATGAGCATGGACCGGTTTTCCCGGTAATCCGTATTTGGC (site TAATGAGCTTC) | 0.585
39 | CAATGATCATGGACCGGTTTTCCCGGTAATCCGTATTTGAA (site CAATGGTCTTT) | 0.41
40 | CACGACCCATGGACCGGTTTTCCCGGTAATCCGTATTTGTT (site CACGCCCCTAA) | 0.0282
41 | GCTACTGCATGGACCGGTTTTCCCGGTAATCCGTATTTGTC (site GCTACTGCTGA) | 1.83
42 | CGATCGACATGGACCGGTTTTCCCGGTAATCCGTATTTGGT (site CGATCGACTAG) | 0
43 | AATGTGTCATGGACCGGTTTTCCCGGTAATCCGTATTTGAC (site AATGTTTCTGT) | 0
44 | GATTATCCATGGACCGGTTTTCCCGGTAATCCGTATTTGCT (site CATTATCCTAG) | 0.436
45 | ATTTAGGCATGGACCGGTTTTCCCGGTAATCCGTATTTGGC (site ATCTAGGCTGC) | 0.928
46 | ACCTAGACATGGACCGGTTTTCCCGGTAATCCGTATTTGGG (site ACCAAGACTCC) | 0.00495
47 | CTGCAAACATGGACCGGTTTTCCCGGTAATCCGTATTTGCA (site CTGTAAACTTG) | 0
48 | CGCAATCCATGGACCGGTTTTCCCGGTAATCCGTATTTGTT (site CGTAATCCTAA) | 0
49 | TTACTAACATGGACCGGTTTTCCCGGTAATCCGTATTTGGA (site ATACTAACTTC) | 0.0425
50 | CGAGCAGCATGGACCGGTTTTCCCGGTAATCCGTATTTGCC (site CGAGCAGCTGG) | 2.69

Row | Sequence | recombinant UMI read abundance (log10)
51 | GACTCACCATGGACCGGTTTTCCCGGTAATCCGTATTTGAC (site GACTCACCTGT) | 0
52 | TCTGAATCATGGACCGGTTTTCCCGGTAATCCGTATTTGAC (site TCTGAATCTGT) | 0
53 | GGTAATCCATGGACCGGTTTTCCCGGTAATCCGTATTTGAA (site GGGAATCCTTT) | 0.00622
54 | GACACGCCATGGACCGGTTTTCCCGGTAATCCGTATTTGTA (site GTCACGCCTTA) | 0.0098
55 | AGCCTTTCATGGACCGGTTTTCCCGGTAATCCGTATTTGAC (site AGGCTTTCTGT) | 0
56 | CGGTTAGCATGGACCGGTTTTCCCGGTAATCCGTATTTGTG (site CAGTTAGCTCA) | 0.694
57 | ACCTAGACATGGACCGGTTTTCCCGGTAATCCGTATTTGGG (site GCCTAGACTCC) | 0.00312
58 | TCTGTTCCATGGACCGGTTTTCCCGGTAATCCGTATTTGAG (site TCTGTTCCTCT) | 0.0103
59 | TTGAGCGCATGGACCGGTTTTCCCGGTAATCCGTATTTGCC (site TTGAGCGCTGG) | 1.9
60 | GAAGATTCATGGACCGGTTTTCCCGGTAATCCGTATTTGTT (site GAAGATTCTTA) | 1.2
61 | TTTACACCATGGACCGGTTTTCCCGGTAATCCGTATTTGAC (site TCTACACCTGT) | 0
62 | AGGCTCCCATGGACCGGTTTTCCCGGTAATCCGTATTTGTG (site AGGGTCCCTCA) | 0.0171
63 | GAGCTCCCATGGACCGGTTTTCCCGGTAATCCGTATTTGAT (site GAGCTCCCTAT) | 1.07
64 | AGCCTTTCATGGACCGGTTTTCCCGGTAATCCGTATTTGAC (site AGCCGTTCTGT) | 0
65 | CGCCACCCATGGACCGGTTTTCCCGGTAATCCGTATTTGTT (site TGCCACCCTAA) | 0.00618
66 | AGCAGAGCATGGACCGGTTTTCCCGGTAATCCGTATTTGAG (site AGCAGAGCTCT) | 2.54
67 | AATGTGTCATGGACCGGTTTTCCCGGTAATCCGTATTTGAC (site AATGGGTCTGT) | 0
68 | CCGTTTACATGGACCGGTTTTCCCGGTAATCCGTATTTGCT (site CCGTTTACTAC) | 0
69 | GTATTACCATGGACCGGTTTTCCCGGTAATCCGTATTTGCA (site GTATTACCTTG) | 0
70 | CAGGCGACATGGACCGGTTTTCCCGGTAATCCGTATTTGGG (site CAGGCGACTCC) | 0.209
71 | CAAGTCACATGGACCGGTTTTCCCGGTAATCCGTATTTGGG (site CAAGTCACTCA) | 0.0308
72 | CTAGAAACATGGACCGGTTTTCCCGGTAATCCGTATTTGAC (site CTAGTATCTGT) | 0.00659
73 | AGCCTTTCATGGACCGGTTTTCCCGGTAATCCGTATTTGAC (site AGCATTTCTGT) | 0.00674
74 | ACTAGCTCATGGACCGGTTTTCCCGGTAATCCGTATTTGTT (site ACTAGCTCTAA) | 0.346
75 | CCCTAGCCATGGACCGGTTTTCCCGGTAATCCGTATTTGCC (site CCCTATCCTGG) | 0
